Literature values, collected in patent US4658014A, “Synthetic peptides with calcitonin-like activity” (priority 1985, dated 1987).

Settings: versus natural eel calcitonin

## [Asu^1,7 ] eel calcitonin
  activity relative to the naturally occuring hormone with the disulfide bond: comparable activity
